According to US20250179061A1 (SIRONAX LTD., priority 2022, published 2025):
pIC50: −log10 of the molar value.

Test system: HT-29 cells
Experiment: HT-29 necroptosis cell viability assay (TNF-α/SMAC mimetic/zVAD-FMK, CellTiter-Glo)
Type: cell-based
Conditions: Homo sapiens, HT-29, HT-29 necroptosis cell viability, IC50 class symbols; read-out: Activity
In short: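 Necroptosis was triggered by TNF-α (10 ng/ml), SMAC mimetic (6 μM) and zVAD-FMK (10 μM) in serum-free medium during 20 h compound exposure (10 concentrations, threefold steps) of HT-29 cells. IC50 from duplicate dose-responses uses CellTiter-Glo ATP luminescence as viability read-out.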

Question: How did the pIC50 turn out when `N#CC1CCN(c2cc(Oc3ccc(-n4ncn(Cc5c(F)cccc5F)c4=O)cc3)ccn2)C1` (stereo not drawn) [Example 384, 1-(4-(4-(4-(2,6-difluorobenzyl)-5-oxo-4,5-dihydro-1H-1,2,4-triazol-1-yl)phenoxy)pyridin-2-yl)pyrrolidine-3-carbonitrile] was run?
Answer: > 7.00

Question: How did the pIC50 turn out when `CC(C)(C)CCNc1cc(Oc2ccc(-n3ncn(Cc4c(F)cccc4F)c3=O)cc2)ccn1` [Example 385, 4-(2,6-difluorobenzyl)-2-(4-((2-((3,3-dimethylbutyl)amino)pyridin-4-yl)oxy)phenyl)-2,4-dihydro-3H-1,2,4-triazol-3-one] was run?
Answer: 5.00 to 6.00

Question: How did the pIC50 turn out when `CC(C)(C)CNc1cc(Oc2ccc(-n3ncn(Cc4c(F)cccc4F)c3=O)cc2)ccn1` [Example 386, 4-(2,6-difluorobenzyl)-2-(4-((2-(neopentylamino)pyridin-4-yl)oxy)phenyl)-2,4-dihydro-3H-1,2,4-triazol-3-one] was run?
Answer: > 7.00

Question: How did the pIC50 turn out when `CC(C)(C)Nc1cc(Oc2ccc(-n3ncn(Cc4c(F)cccc4F)c3=O)cc2)ccn1` [Example 387, 2-(4-((2-(tert-butylamino)pyridin-4-yl)oxy)phenyl)-4-(2,6-difluorobenzyl)-2,4-dihydro-3H-1,2,4-triazol-3-one] was run?
Answer: 6.00 to 7.00

Question: With `CC(C)(C)Oc1cc(Oc2ccc(-n3ncn(Cc4c(F)cccc4F)c3=O)cc2)ccn1` [Example 388, 2-(4-((2-(tert-butoxy)pyridin-4-yl)oxy)phenyl)-4-(2,6-difluorobenzyl)-2,4-dihydro-3H-1,2,4-triazol-3-one] as the molecule, how does the pIC50 read?
Answer: 6.00 to 7.00

Question: With `C[C@@H]1[C@H](C#N)CN1c1nccc(Oc2ccc(-n3ncn(Cc4c(F)cccc4F)c3=O)cc2F)c1F` [Example 389, (2R,3R)-1-(4-(4-(4-(2,6-difluorobenzyl)-5-oxo-4,5-dihydro-1H-1,2,4-triazol-1-yl)-2-fluorophenoxy)-3-fluoropyridin-2-yl)-2-methylazetidine-3-carbonitrile] as the molecule, how does the pIC50 read?
Answer: > 7.00

Question: With `Cc1nc(N2CC(C)(N)C2)sc1Oc1ccc(-n2ncn(Cc3c(F)cccc3F)c2=O)cc1` [Example 390, 2-(4-((2-(3-amino-3-methylazetidin-1-yl)-4-methylthiazol-5-yl)oxy)phenyl)-4-(2,6-difluorobenzyl)-2,4-dihydro-3H-1,2,4-triazol-3-one] as the molecule, how does the pIC50 read?
Answer: > 7.00

Question: `N#CC12CC(Nc3nccc(Oc4ccc(-n5ncn(Cc6c(F)cccc6F)c5=O)cc4Cl)c3F)(C1)C2` [Example 391, 3-((4-(2-chloro-4-(4-(2,6-difluorobenzyl)-5-oxo-4,5-dihydro-1H-1,2,4-triazol-1-yl)phenoxy)-3-fluoropyridin-2-yl)amino)bicyclo[1.1.1]pentane-1-carbonitrile] was tested. Which pIC50 did it give?
Answer: 6.00 to 7.00

Question: How did the pIC50 turn out when `N#CC12CC(Nc3cc(Oc4ccc(-n5ncn(Cc6c(F)cccc6F)c5=O)cc4Cl)c(F)cn3)(C1)C2` [Example 392, 3-((4-(2-chloro-4-(4-(2,6-difluorobenzyl)-5-oxo-4,5-dihydro-1H-1,2,4-triazol-1-yl)phenoxy)-5-fluoropyridin-2-yl)amino)bicyclo[1.1.1]pentane-1-carbonitrile] was run?
Answer: > 7.00

Question: `CC1(C#N)CCN(c2cc(Oc3ccc(-n4ncn(Cc5c(F)cccc5F)c4=O)cc3F)c(Cl)cn2)C1` (stereo not drawn) [Example 393, 1-(5-chloro-4-(4-(4-(2,6-difluorobenzyl)-5-oxo-4,5-dihydro-1H-1,2,4-triazol-1-yl)-2-fluorophenoxy)pyridin-2-yl)-3-methylpyrrolidine-3-carbonitrile] was tested. Which pIC50 did it give?
Answer: > 7.00

Question: With `CC1(C#N)CCN(c2cc(Oc3ccc(-n4ncn(Cc5c(F)cccc5F)c4=O)cc3F)c(F)cn2)C1` (stereo not drawn) [Example 394, 1-(4-(4-(4-(2,6-difluorobenzyl)-5-oxo-4,5-dihydro-1H-1,2,4-triazol-1-yl)-2-fluorophenoxy)-5-fluoropyridin-2-yl)-3-methylpyrrolidine-3-carbonitrile] as the molecule, how does the pIC50 read?
Answer: > 7.00

Question: How did the pIC50 turn out when `N#Cc1cnc(Cl)cc1Oc1ccc(-n2ncn(Cc3c(F)cccc3F)c2=O)cc1F` [Example 395, 6-chloro-4-(4-(4-(2,6-difluorobenzyl)-5-oxo-4,5-dihydro-1H-1,2,4-triazol-1-yl)-2-fluorophenoxy)nicotinonitrile] was run?
Answer: 5.00 to 6.00
